# Test system: Leu16 CAR-T cells
# Test: T-cell subtype distribution and Tn/scm enrichment, Leu16 CAR-T cells
# Type: cell-based, human
# Conditions: 6 days of pharmacological modulation, relative to vehicle
# Source text: FIG. 3A-G. Pharmacological modulation of Leu16 CAR-T cells modestly dampens tonic signaling while enhancing anti-tumor efficacy. (A) Pictorial representation of the correlation between tonic signaling-modulated rituximab CAR-T cells and in vivo anti-tumor efficacy. (B) Pictorial representation of pharmacological modulation strategy aimed to either increase or decrease Leu16 CAR tonic signaling; c-MYC (MYCi975) and SREBP (betulin) inhibition increased tonic signaling whereas mTORC1 (rapamycin) inhibition decreased tonic signaling in rituximab CAR-T cells. (C) % distribution of T-cell subtypes in CAR^+ T cells after 6 days of pharmacological modulation (left) and Tn/scm enrichment (right). […] (F) Tumor signal (in photons/sec/cm2/sr) in individual animals as quantified by bioluminescence imaging. […]
# Antibody staining for flow-cytometry analysis. EGFRt expression was measured with biotinylated cetuximab (Eli Lilly; biotinylated in-house), followed by PE-conjugated streptavidin (Jackson ImmunoResearch #016-110-084). CAR expression was quantified by surface epitope staining using anti-Fc (Alexa Fluor 488, Jackson ImmunoResearch #709-546-098). […] T-cell subtype of CAR-T cells was evaluated by antibody staining for CD45RO (VioBlue®, clone REA611, Miltenyi #130-119-620) and CD62L (APC, clone DREG56, Invitrogen #17-0629-42) after 5-6 days of inhibitor culture (FIG. 1, FIG. 3). […]
row,Compound,enrichment of Tn/scm cells
1,"C=C(C)[C@@H]1CC[C@]2(CO)CC[C@]3(C)[C@H](CC[C@@H]4[C@@]5(C)CC[C@H](O)C(C)(C)[C@@H]5CC[C@]43C)[C@@H]12 [betulin, Betulin]",increased enrichment
2,MYCi975,increased enrichment

# Source: patent US20250345426A1, “METHODS FOR MAKING AND USING THERAPEUTIC CELLS” (THE REGENTS OF THE UNIVERSITY OF CALIFORNIA, priority 2022, published 2025)
